The values that follow come from patent US20260021092A1, “STRUCTURE-BASED DESIGN OF A NOVEL CLASS OF DRUGS FOR NEURODEGENERATIVE DISEASE” (The Regents of the University of California, priority 2022, published 2026).

Test [1] has as its target T1, MSA brain fibrils seeding HEK293T alpha-synuclein biosensor cells (Homo sapiens, UniProt P37840).
T1 construct: Extraction of sarkosyl-insoluble alpha-synuclein fibrils from neuropathologically confirmed brain samples of patients diagnosed with MSA; from tissue; host or cells: seed: MSA patient brain; reporter: stably transfected HEK293T cells from the Marc Diamond lab
The test is described as follows: Alpha-synuclein biosensor cell seeding assay, MSA brain fibrils. In kind it is cell-based. The conditions noted are these: sub micromolar concentrations, 48 hours pre-incubation. The procedure:
Next, we tested the efficacy of the compounds to mitigate the intracellular seeding of MSA fibrils in biosensor cells. Brain-derived MSA fibrils robustly seed intracellular alpha-synuclein in HEK293T biosensor cells^21. […] Cells were imaged 48 hours and the number of fluorescent puncta per sample well was quantified.
HEK293T biosensor cells stably expressing YFP-fused A53T mutant alpha-synuclein, developed and provided by the lab of Marc Diamond at UTSW were used. Cells were grown in DMEM (Life Technologies, cat. 11965092) with FBS (10% vol/vol; Life Technologies, cat. A3160401), penicillin/streptomycin (1%; Life Technologies, cat. 15140122), and Glutamax (1%; Life Technologies, cat. 35050061), at 37° C. and 5% CO2 in a humidified incubator. Compounds were incubated with recombinant or patient-derived alpha-synuclein fibrils for 48 hours in OptiMEM media then applied to ˜70% confluent biosensor cells. Prior to adding to cells, the coincubated compound/fibril solution was sonicated for 5 minutes in a cuphorn water bath, then mixed for 20 minutes with Lipofectamine 2000 in OptiMEM (1:20 dilution) for 20 minutes. 10 uL of the inhibitor/fibril+Lipofectamine mixture was added to 90 uL of cells plated in black 96-well tissue culture plates in triplicate for each concentration of compound tested. The number of seeded aggregates was quantified using a Celigo Image Cytometer (Nexcelom) in the YFP channel. Images were processed in ImageJ, background fluorescence from unseeded cells was subtracted, and the number of particles per image were counted using the Particle Analyzer function. The quantity of aggregates in each well was normalized to cell confluence. Standard deviation between triplicates and a nonlinear regression curve was used to calculate IC50 values for dose response curves. High quality fluorescent images were obtained using a ZEISS Axio Observer D1 fluorescence microscope in the YFP channel. […]

Test [2] has as its target T2, recombinant alpha-synuclein fibrils (Homo sapiens, UniProt P37840).
T2 construct: made in house; host or cells: E. coli BL21(DE3) Gold
The test is described as follows: Thioflavin T fluorescence of alpha-synuclein fibrils. In kind it is biochemical. The settings on record: equimolar 100 μM:100 μM, 48 hours at 37° C. in 1×PBS. As for the experimental part: Both compounds were incubated with equimolar ratios of recombinant alpha-synuclein fibrils (100 μM:100 μM) for 48 hours at 37° C. in 1×PBS. After incubation, Thioflavin T (ThT), a fluorescent marker of amyloid fibrils, was added to the samples and ThT fluorescence was measured. EGCG was used as a positive control for comparison. […] Next, transmission electron microscopy (EM) was performed for each sample. […] To obtain a quantitative evaluation of fibril reduction, fibrils were first incubated for 72 hours with compound, then 10 micrographs from random grid points were taken for each sample, and the numbers of fibrils per image were counted (FIG. 5c). […] Western blot analysis, staining for alpha-synuclein, was performed for fibril samples incubated with compounds for 48 hours (FIG. 5d). For untreated alpha-synuclein fibrils, we see a prominent band at 14 kDa corresponding with protein monomer. We also observe a large smear of higher molecular weight alpha-synuclein species, likely corresponding to oligomers or small fibrils, and a dark band at the top of the gel likely from larger fibrils. […] These physical and chemical properties are more predictive of oral bioavailability and central nervous system penetration compared to EGCG, making them more viable candidates for further drug development.
Compounds were incubated quiescently with fibril samples (both recombinant and brain-derived) for 72 hours at 37° C.

Test [3] concerns the target T2, recombinant alpha-synuclein fibrils. The test is described as follows: TEM quantification of recombinant alpha-synuclein fibrils. In kind it is biochemical. The settings on record: 72 hours with compound, 10 micrographs. As for the experimental part:
Both compounds were incubated with equimolar ratios of recombinant alpha-synuclein fibrils (100 μM:100 μM) for 48 hours at 37° C. in 1×PBS. After incubation, Thioflavin T (ThT), a fluorescent marker of amyloid fibrils, was added to the samples and ThT fluorescence was measured. EGCG was used as a positive control for comparison. […] Next, transmission electron microscopy (EM) was performed for each sample. […] To obtain a quantitative evaluation of fibril reduction, fibrils were first incubated for 72 hours with compound, then 10 micrographs from random grid points were taken for each sample, and the numbers of fibrils per image were counted (FIG. 5c). […] Western blot analysis, staining for alpha-synuclein, was performed for fibril samples incubated with compounds for 48 hours (FIG. 5d). For untreated alpha-synuclein fibrils, we see a prominent band at 14 kDa corresponding with protein monomer. […]
For all transmission electron microscopy (TEM), 6 μL of sample were added onto 400 mesh Formvar Carbon film copper mesh grids (Electron Microscopy Sciences), then incubated for four minutes. […] For quantitation of fibrils, […] TEM images were taken per experimental condition from random points throughout the grid. Fibril counts were manually quantified per image in a blinded fashion. […]

In test [4] the target is T3, recombinant alpha-synuclein fibrils seeding HEK293T cells expressing YFP-fused A53T alpha-synuclein (Homo sapiens, UniProt P37840).
T3 construct: made in house; host or cells: seed: E. coli BL21(DE3) Gold; reporter: stably transfected HEK293T cells from the Marc Diamond lab
The test can be described thus: Alpha-synuclein biosensor cell seeding assay, recombinant fibrils. In kind it is cell-based. Also noted: number of fluorescent puncta (seeded aggregates): dose or concentration left out as unconfirmed. The conditions noted are these: for number of fluorescent puncta (seeded aggregates): 48 hours pre-incubation. An excerpt:
It is thought that alpha-synuclein pathology propagates throughout the brain via a prion-like seeding mechanism^20. Alpha-synuclein aggregates in one cell can fragment and spread to neighboring cells, where they seed the aggregation of soluble protein. Molecules able to disaggregate pre-formed fibrils may be able to interrupt this process. To that end, we assessed if both compounds could mitigate intracellular seeding of αSyn fibrils using alpha-synuclein biosensor cells-HEK293T cells expressing A53T mutant alpha-synuclein fused with yellow fluorescent protein (YFP). At baseline, the fluorescently labeled alpha-synuclein remains soluble within the cell, visible as diffuse fluorescence. However, the liposome-mediated transduction of exogenous αSyn fibrils into the cells induces aggregation of the endogenous protein, and the aggregates can be visualized and quantified as fluorescent puncta within the cell.
HEK293T biosensor cells stably expressing YFP-fused A53T mutant alpha-synuclein, developed and provided by the lab of Marc Diamond at UTSW were used. […] Prior to adding to cells, the coincubated compound/fibril solution was sonicated for 5 minutes in a cuphorn water bath, then mixed for 20 minutes with Lipofectamine 2000 in OptiMEM (1:20 dilution) for 20 minutes. 10 uL of the inhibitor/fibril+Lipofectamine mixture was added to 90 uL of cells plated in black 96-well tissue culture plates in triplicate for each concentration of compound tested. The number of seeded aggregates was quantified using a Celigo Image Cytometer (Nexcelom) in the YFP channel. Images were processed in ImageJ, background fluorescence from unseeded cells was subtracted, and the number of particles per image were counted using the Particle Analyzer function. The quantity of aggregates in each well was normalized to cell confluence. Standard deviation between triplicates and a nonlinear regression curve was used to calculate IC50 values for dose response curves. High quality fluorescent images were obtained using a ZEISS Axio Observer D1 fluorescence microscope in the YFP channel.

For the compound `Cc1cc(C)c(NC(=O)Cn2nc3c4c(cccc4c2=O)-c2ccccc2-3)c(C)c1` [CNS-11, N-mesityl-2-(3-oxoindeno[1,2,3-de]phthalazin-2(3H)-yl)acetamide], the “intracellular seeding by MSA brain fibrils” value (from here on “intracellular seeding”) in test [1] was “very significant reduction in intracellular seeding”. For the same compound, in test [2], the ThT signal entry is recorded as “reduction in ThT signal”. Moreover, in test [3], the “number of imaged fibrils per EM image” value is “reduction in number of imaged fibrils”. For the same compound, in test [4], the “number of fluorescent puncta (seeded aggregates)” value (“number of fluorescent puncta” below) is on record as “dose-dependent reduction in aggregates” and the “seeding at low compound concentrations” value is listed as “initial increase of seeding”.

In the case of `Cc1cccc(C)c1NC(=O)Cn1nc(Cc2ccccc2)c2ccccc2c1=O` [CNS-11g, 2-(4-benzyl-1-oxophthalazin-2-yl)-N-(2,6-dimethylphenyl)acetamide], the “intracellular seeding” value in test [1] was “very significant reduction in intracellular seeding”. The ThT signal result in test [2] is listed as “reduction in ThT signal”. The “number of imaged fibrils per EM image” value in test [3] is “reduction in number of imaged fibrils”. Moreover, in test [4], the “number of fluorescent puncta” value is recorded as “dose-dependent reduction in aggregates” and the “seeding at low compound concentrations” value is recorded as “not seen”.

In the case of `O=C(O[C@@H]1Cc2c(O)cc(O)cc2O[C@@H]1c1cc(O)c(O)c(O)c1)c1cc(O)c(O)c(O)c1` [EGCG, epigallocatechin gallate], the “intracellular seeding” value in test [1] was “very significant reduction in intracellular seeding”. Moreover, the ThT signal result in test [2] was “reduction in ThT signal”. For the same compound, in test [4], the “number of fluorescent puncta” value is given as “dose-dependent reduction”.
